Measurements from a melting point compilation (Tetko et al.; mined from patent text by program, amines drawn as free bases though some values may be those of a salt).

melting point [°C]	SMILES
160 to 162	COC(=O)C(Sc1nnnn1-c1ccccc1)N1C(=O)c2ccccc2S1(=O)=O (configuration not stated)
202	Cc1ccc(C(=O)N[C@H]2CC[C@H](CCN3CCC(c4cccc5c4CCO5)CC3)CC2)cn1
219 to 221	N#Cc1cnc2sc(S(=O)(=O)Cc3ccccc3)nn2c1=O
120 to 121	O=C(O)CCN1CCN(C2=Nc3ccccc3Sc3ccc(Cl)cc32)CC1
225 to 227	Cc1c(-c2ccc(C[C@H](NC(=O)c3c(Cl)cccc3Cl)C(=O)O)cc2)c(=O)n(C)c(=O)n1C
144 to 147	CN(C)CCOc1ccc(Cl)c(C(=O)NCC23CC4CC(CC(C4)C2)C3)c1
205 to 208	O=C1Nc2ccc(Cl)cc2C1(O)c1ccccc1C(F)(F)F (configuration not stated)
115 to 117	CN(C)CCCCNc1ncc2c(n1)-c1ccccc1C(c1cccc(Br)c1)C2 (configuration not stated)
180 to 182	N=C(N)NCc1ccc(OCCC2Oc3ccccc3N(Cc3ccccc3Cl)C2=O)cc1 (configuration not stated)
240 to 242	COc1cc2c3c(nc4ccccc4c3c1)-c1ccc(Cl)cc1N2
100 to 102	CC(C)(C)OC(=O)N1CC(O)CN1C(=O)OC(C)(C)C
108 to 111	CCCc1ccc(OC(C)=O)c(C2(OC(C)=O)C(=O)c3ccccc3C2=O)c1
99	OC(COc1ccc(Cl)cc1)(Cn1cncn1)Cn1cncn1
188 to 190	CC(C)SC(=S)N1Cc2[nH]c3ccccc3c2CC1C(=O)O (configuration not stated)
95 to 96	CC(C)(C)OC(=O)COc1ccc2c3c(ccc2c1)OC(=O)CC3
176 to 177	CCOC(=O)c1cccc(-n2cc(-c3ccccc3)c3c(N)ncnc32)c1
138	COc1cc(-c2ccnc(-c3cn(C)c(=O)n3-c3ccc(C(C)(C)C#N)cc3)c2)ccn1
175 to 177	CCOC(=O)CNC(=O)c1nc2ccc(NCCCN3CCC(OC(c4ccccc4)c4ccccc4)CC3)nn2n1
205	COc1ccccc1CC(=O)N1C[C@@H]2[C@H](F)CCC(c3ccccc3)(c3ccccc3)[C@@H]2C1
101 to 102	CC(=O)c1ccc(COC(=O)N2CCN(CC3(C)Cn4cc([N+](=O)[O-])nc4O3)CC2)cc1 (configuration not stated)
98 to 105	COc1cc(N2CCCN(C)CC2)ccc1Nc1ncc2ccc(-c3ccccc3N(C)S(C)(=O)=O)n2n1
140 to 143	Cc1c(N2CCC(C3(N)CCC3)C2)c(F)cc2c(=O)c(C(=O)O)cn([C@@H]3C[C@@H]3F)c12 (some centres not stated)
105 to 107	O=C(N[C@H]1CC[C@@H](F)CC1)OCc1ccccc1

melting point [°C]	SMILES
219 to 221	Cc1ccc(Oc2ccccc2-n2cc(C(=O)O)cn2)c(O)c1
55 to 57	N#Cc1ccc(-c2ccoc2)cc1
154 to 157	Oc1ccc(C(=C(c2ccccc2)C(F)(F)F)c2ccc(OCCN3CCOCC3)cc2)cc1
266 to 267	CC(C)(CCc1nnn[nH]1)c1ccc(C(=O)Nc2cn3cc(-n4ccnc4)ccc3n2)cc1
162 to 163	O=C(O)c1ccc(Oc2nccs2)cc1
124 to 125	CC(C)C1COc2ccccc2O1 (configuration not stated)
115	CC(C)(C)OC(=O)C1CSC(C2CC3CCC2C3)N1C(=O)CNC(=O)Nc1cccc(CC(=O)O)c1 (mixture of isomers)
232 to 236	Cc1nc[nH]c1CSCCNC1=NC(=O)C(C)(C)N1
168 to 170	Nc1ccc(C(O)(C(F)(F)F)C(F)(F)F)cc1O
62 to 64	Cc1cc(SC(C)c2cccc3cn(-c4ccc(C(F)(F)F)cc4)nc23)ccc1OCC(=O)O (configuration not stated)
195 to 196	NS(=O)(=O)c1ccc(S(=O)(=O)N2CCC(=O)CC2)cc1Cl
89	COC(=O)[C@H]1O[C@H]1C(=O)N(CC(=O)OC(C)(C)C)c1ccc(OC)cc1
104 to 105	CCCOc1c(Cl)cc(Cl)c2c(=O)c3ccccc3sc12
86 to 87.5	Fc1ccc(-c2cc3c(cc2Br)OCO3)cc1
66 to 68	Cc1cc(CCCCOCCCCCCNCc2c(CO)ccc(O)c2CO)cc(C)c1N
102 to 103	COC(=O)/C=C/n1cnc2c(C(C)C)cc(C(C)C)cc2c1=O
138 to 139	O=C(O)CC1CCCCc2c1c1cc(F)ccc1n2Cc1ccc(Cl)cc1 (configuration not stated)
76 to 77	C=CCOC(=O)C(C(=O)NC1C(=O)N2C1SC(C)(C)C2C(=O)OCC=C)=C1SCCS1 (configuration not stated)
178 to 180	CC(C)C(=O)c1cn(Cc2c(F)cccc2F)c2sc(-c3ccc(NC(=O)C(C)(C)O)cc3)c(CN(C)Cc3ccccc3)c2c1=O
192 to 193	O=CNc1ccc(S(=O)(=O)C[N+](=O)[O-])cc1
108 to 110	COC(=O)C(=O)CC(=O)c1ccc(Cl)cc1
101 to 103	CCCCCC(CC(=O)Nc1cc(C(N)=O)ccc1C(C)(C)C)c1cc(C(=O)OC)c(OC)cc1OC (configuration not stated)
89 to 93.5	CCOC1=NCCNC(c2ccccc2)=C1

melting point [°C]	SMILES
> 300	Oc1cccc2c1CC(N1CCN(c3ncccn3)CC1)CC2 (configuration not stated)
91 to 94	CCOC(=O)c1ccc(N(C(C)=O)C(=O)c2ccc(C(=O)C(C)(C)C)cc2)cc1
129 to 130	COc1ccc(CCNC(=O)C(F)(F)F)cc1NS(C)(=O)=O
133 to 135	O=[N+]([O-])c1c(Br)nn(CCO)c1NCc1ccccc1
132 to 133	COc1ccc(/C(=C/C=C/C(=O)O)C(C)C)cc1
156 to 158	CCOCc1nc2c(N)nc3ccccc3c2n1CC1(O)CCCC1
93 to 94	CCn1c(=O)n(CCCCC(C)(O)CC)c(=O)c2c1ncn2Cc1ccccc1 (configuration not stated)
243 to 244	COc1cccc(-n2c(-c3sc(Nc4ccc(Cl)cc4)nc3C)nc3ccccc3c2=O)c1
124 to 126	COC(=O)c1nc2cccc(Br)c2c(O)c1C(=O)OC
155 to 158	CC(C)=C1C(=O)N(c2cccc3c(N)cccc23)C(=O)/C1=C(\C)c1cc(-c2ccccc2)sc1C
210 to 212	CCN1C(=O)CCCc2c1ccc(Nc1ncc(Cl)c(Nc3ccc(N4CCOCC4)cc3OC)n1)c2OC
139 to 140	COC(=O)c1cc(F)c(N2CCC(N)C2)nc1Nc1ccc(F)cc1F (configuration not stated)
105 to 107	Nc1ncccc1OCc1ccc(F)cc1F
144 to 147	Clc1cccc(Nc2nccc(-c3ccnc(Cl)c3)n2)c1
128 to 130	O=C(OCCO)c1cc(-c2ccc(Cl)cc2)c[nH]1
95 to 100	COc1ccc(C=CCN2CCc3nc(N)sc3CC2)c(OC)c1
165 to 168	CC1(C)CC(C)(C#N)c2cn(-c3ccc(F)cc3)c(C=O)c21 (configuration not stated)
134 to 138	Nc1nc2c(s1)CCN(CC1=Cc3ccccc3C1)CC2
125 to 127	C=CCn1c(=O)c([N+](=O)[O-])c(O)c2ccccc21
131 to 132	O=C1NC(=O)N(CCCc2ccccc2)C1O (configuration not stated)
116 to 118	CC(C)(C)NC(=O)C(C)(C)C
131 to 140	COc1cccc2c(CCCN(C3CCC3)C3COc4c(F)ccc(C(N)=O)c4C3)coc12 (configuration not stated)
175 to 176	COC(=O)C(=O)c1ccc(NC(=O)COc2ccc3ccccc3c2)cc1

melting point [°C]	SMILES
282 to 284	COc1ccc(Cc2cccc(-c3c(O)c4ccc(Cl)cc4[nH]c3=O)c2)cc1
212	CC(=O)c1ccc2c(c1)OC(C(N)=O)CO2 (configuration not stated)
108 to 110	CC(C)(C)c1cc(N)n(-c2cccc(Oc3ccccc3)c2)n1
175 to 176	CCn1ncc2c3onc(-c4ccc(F)cc4)c3cnc21
188 to 191	O=CNNc1ccc(NS(=O)(=O)c2cccc([N+](=O)[O-])c2)cc1
140 to 143	COc1ccc(C(=O)Nc2ccc(-n3nc(C(F)(F)F)cc3C(F)(F)F)cc2)c(Cl)c1
100 to 101	OCCON=Cc1ccc(-c2ccccc2)nc1
190 to 191	Cc1ccc(-c2c(CNC(=O)OC(C)(C)C)c(CC(C)C)nc3ccc(-c4nc(C(=O)OC(C)C)cs4)cc23)cc1
127 to 128	N#CCCSCc1csc(NC(=N)N)n1
102	CC(C)(C)c1ccc(OCC(N)CO)cc1 (configuration not stated)
146 to 148	Cn1c(=O)c2c(ncn2Cc2noc(CCl)n2)n(C)c1=O
131 to 140	NC(=O)N(CC(=O)OCCCCCCOC(=O)CN(C(N)=O)c1ccccc1)c1ccccc1
93 to 94	COC(=O)Cc1ccc(OCc2ccc(OCc3nc(-c4ccccc4)oc3C)cc2)cc1
60 to 62	CCOC(=O)C(CCCCCc1ccc(Cl)cc1)NS(C)(=O)=O (configuration not stated)
145 to 148	O=C(Nc1ccc(NCc2ccccc2)cc1)C(=O)N1CCC(Cc2ccc(F)cc2)CC1
55 to 63	COC(=O)C(C)c1ccc(OCCNC(=O)C2Cc3ccccc3N2S(=O)(=O)c2ccc(-c3cc(C(F)(F)F)ccc3Cl)cc2)cc1 (configuration not stated)
168 to 170	CC1CCN(Cc2cc(COc3cccc4c3CN(C3CCC(=O)NC3=O)C4=O)on2)CC1 (configuration not stated)
117	O=C(Cc1ccsc1)Nc1ccc(Br)cn1
188 to 190	CC1=C(C#N)C(c2cccc3ncc(Cc4ccccc4)cc23)C(C(=O)OC(C)C)=C(C)N1 (configuration not stated)
197 to 198	CCOCCCN(C)Cc1ccc(NC(=O)C2=Cc3cc(-c4ccc(OCC)cc4)ccc3S(=O)(=O)CC2)cc1
203 to 205	Cc1nc2cccc(S(=O)(=O)n3c(COC(C)C(=O)O)cc4nc(Cl)ccc43)c2s1 (configuration not stated)
174 to 176	COc1ccc(C(=C/C=C/C(=O)O)c2ccc(OC)c(OC)c2)cc1OC

SMILES	melting point [°C]
CNC(=O)c1ccc2[nH]cc(C3=CCN(C)CC3)c2c1	125 to 135
CC(C)(C)OC(=O)C(=NO)C1=Nc2ccc(Cl)cc2C(c2ccccc2F)=NC1	212 to 214
c1ccc2c(c1)-c1nccc3ccnc-2c13	152 to 153
CN1CC(CNC(=N)NC(=O)c2cncc(Br)c2)CC2c3cccc4c3c(cn4C)CC21 (configuration not stated)	140 to 142
COc1c(F)ccc2c1C(=O)N1CC[C@H]1c1c(-c3noc(CN)n3)ncn1-2	196 to 198
CC(C)N(CCNc1ccc([N+](=O)[O-])c2ccccc12)C(C)C	63 to 64
